The record followed here is publication PMC6045348 (ACS Omega, 2018).

The target of this assay is Ser–Thr PP-1 catalytic subunit (PP1c) (Oryctolagus cuniculus, UniProt P62139). The experiment in a line: DiFMUP fluorescence phosphatase assay, residual activity […] at […]. Type of assay: biochemical.
Sequence of Ser–Thr PP-1 catalytic subunit (PP1c) (P62139 2-330): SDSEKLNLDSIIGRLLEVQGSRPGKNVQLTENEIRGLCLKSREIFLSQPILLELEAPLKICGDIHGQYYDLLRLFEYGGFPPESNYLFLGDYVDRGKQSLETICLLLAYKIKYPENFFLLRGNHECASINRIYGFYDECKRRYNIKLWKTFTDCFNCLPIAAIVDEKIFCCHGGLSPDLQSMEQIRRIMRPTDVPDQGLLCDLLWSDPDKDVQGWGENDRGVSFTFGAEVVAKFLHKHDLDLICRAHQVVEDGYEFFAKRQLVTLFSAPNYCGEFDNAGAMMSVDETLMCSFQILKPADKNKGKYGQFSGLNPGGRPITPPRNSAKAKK

As to `CN1C[C@@H](c2c[nH]c3cc(Br)ccc23)NC[C@@H]1c1c[nH]c2cc(Br)ccc12` [compound 3, dragmacidin A], the half-inhibitory concentration (IC50) was approximately 10 µM.
